Laboratory results published in ChEMBL document CHEMBL1126161, “3,4-Dihydroquinolin-2(1H)-ones as combined inhibitors of thromboxane A2 synthase and cAMP phosphodiesterase” (J Med Chem, 1992).
“And” between values parts separate entries of the source, which are not always exact repeats. Equal values may be shown once.

How the values were obtained:
Homo sapiens [1] = organism: Homo sapiens; assay: In vitro inhibition of ADP-induced aggregation of human PRP in the presence of pig aortal microsomes (PAM).; format: functional
Homo sapiens [2] = organism: Homo sapiens; assay: Inhibition of ADP-induced aggregation of human PRP in the absence of pig aortal microsomes (PAM); format: functional
Homo sapiens [3] = organism: Homo sapiens; assay: Ratio of IC50(w/oPAM)/IC50(w/PAM); format: functional
Rattus norvegicus [4] = assay: Antihypertensive activity in conscious spontaneously hypertensive rat (SHR), percent change in Systolic blood pressure (SBP) after 4 hr at 10 mg/kg peroral dose; format: functional; details: route oral
Rattus norvegicus [5] = assay: Antihypertensive activity in conscious spontaneously hypertensive rat (SHR), percent change in Systolic blood pressure (SBP) after 2 hr at 10 mg/kg peroral dose; format: functional; details: route oral
Rattus norvegicus [6] = assay: Antihypertensive activity in conscious spontaneously hypertensive rat (SHR), percent change in heart rate (beats/min) after 2 hr at 10 mg/kg peroral dose; format: functional; details: route oral
Rattus norvegicus [7] = assay: Antihypertensive activity in conscious spontaneously hypertensive rat (SHR), percent change in Systolic blood pressure (SBP) after 1 hr; format: functional; design: concentration or dose not given beside the values
Rattus norvegicus [8] = assay: Antihypertensive activity in conscious spontaneously hypertensive rat (SHR), percent change in heart rate (beats/min) after 1 hr at 10 mg/kg peroral dose; format: functional; details: route oral
Rattus norvegicus [9] = assay: Antihypertensive activity in conscious spontaneously hypertensive rat (SHR), percent change in heart rate (beats/min) after 4 hr at 10 mg/kg peroral dose; format: functional; details: route oral
Rattus norvegicus [10] = assay: Antihypertensive activity in conscious spontaneously hypertensive rat (SHR), percent change in Systolic blood pressure (SBP) after 1 hr at 10 mg/kg peroral dose; format: functional; details: route oral
Rattus norvegicus [11] = assay: Effect of TXA2 synthase inhibitor (compound) on serum TXB2 level in rats at 50 mg/kg po, after 2 hr; format: functional
Mus musculus [12] = assay: Protection against mortality in pulmonary thromboembolism model in mice at 1 mg/kg; format: functional
Mus musculus [13] = organism: Mus musculus; assay: Time course of protection against mortality in a pulmonary thromboembolism model in mice after -7h; format: functional
Rattus norvegicus [14] = assay: Ex vivo inhibition of blood platelet aggregation in rats at 100 mg/kg peroral dose after 8 hr; format: functional; details: route oral
Mus musculus [15] = organism: Mus musculus; assay: Time course of protection against mortality in a pulmonary thromboembolism model in mice after -3h; format: functional
Homo sapiens [16] = organism: Homo sapiens; assay: Inhibition of [14C]arachidonic acid induced platelet aggregation at 50 uM (Control TXB2 = 14.9+/-2.5); format: functional
Rattus norvegicus [17] = assay: Ex vivo inhibition of blood platelet aggregation in rats at 100 mg/kg peroral dose after 5 hr; format: functional; details: route oral
Mus musculus [18] = organism: Mus musculus; assay: Time course of protection against mortality in a pulmonary thromboembolism model in mice after -1h; format: functional
Mus musculus [19] = assay: Protection against mortality in pulmonary thromboembolism model in mice at 12 mg/kg; format: functional
Mus musculus [20] = assay: Protection against mortality in pulmonary thromboembolism model in mice at 30 mg/kg; format: functional
Rattus norvegicus [21] = assay: Effect of TXA2 synthase inhibitor (compound) on serum TXB2 level in rats at 50 mg/kg po, after 2 hr.; format: functional
Rattus norvegicus [22] = assay: Ex vivo inhibition of blood platelet aggregation in rats at 100 mg/kg peroral dose after 3 hr; format: functional; details: route oral
Homo sapiens [23] = organism: Homo sapiens; assay: Inhibition of [14C]arachidonic acid induced TXB2 formation at 5 uM (Control TXB2 = 14.9+/-2.5)
Mus musculus [24] = assay: Protection against mortality in pulmonary thromboembolism model in mice at 9 mg/kg; format: functional
Homo sapiens [25] = organism: Homo sapiens; assay: Inhibition of [14C]arachidonic acid induced platelet aggregation at 50 uM (Control 6-keto-PGF1-alpha = 1.45+/-0.6); format: functional
Mus musculus [26] = organism: Mus musculus; assay: Time course of protection against mortality in a pulmonary thromboembolism model in mice after -5h; format: functional
Phosphodiesterase 3 = Phosphodiesterase 3 (Homo sapiens, UniProt Q14432+Q13370); assay: Inhibition of human blood platelet c-AMP phosphodiesterase
Thromboxane-A synthase = target: T1, Thromboxane-A synthase (Homo sapiens, UniProt P24557); assay: Compound was evaluated for the inhibition of human blood platelet, thromboxane A2 synthase
T1 sequence (P24557 whole entry): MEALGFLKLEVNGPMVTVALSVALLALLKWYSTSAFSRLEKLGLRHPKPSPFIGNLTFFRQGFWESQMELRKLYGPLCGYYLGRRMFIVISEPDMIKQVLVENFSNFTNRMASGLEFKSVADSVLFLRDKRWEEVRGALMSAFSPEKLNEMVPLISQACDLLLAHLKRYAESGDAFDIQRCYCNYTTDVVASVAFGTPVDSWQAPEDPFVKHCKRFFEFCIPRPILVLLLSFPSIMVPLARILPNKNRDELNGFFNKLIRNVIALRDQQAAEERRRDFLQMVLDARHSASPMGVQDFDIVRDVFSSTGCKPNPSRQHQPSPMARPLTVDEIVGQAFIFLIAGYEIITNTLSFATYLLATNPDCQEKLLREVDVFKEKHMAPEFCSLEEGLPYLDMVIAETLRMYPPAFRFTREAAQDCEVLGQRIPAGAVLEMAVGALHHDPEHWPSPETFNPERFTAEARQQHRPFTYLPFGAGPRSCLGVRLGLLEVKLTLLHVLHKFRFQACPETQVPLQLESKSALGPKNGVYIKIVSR

Homo sapiens [27] = organism: Homo sapiens; assay: Ratio of IC50(PDE)/IC50(TXA2); format: functional

Row | Compound | IC50 (Homo sapiens [1]) [µM] | IC50 (Homo sapiens [2]) [µM] | Ratio (Homo sapiens [3]) | Change systolic BP (Rattus norvegicus [5]) [%] | Change in heart rate (Rattus norvegicus [6]) [%] | further results
1 | CCCCC/C(=C\c1cccnc1)c1ccc2c(c1)CCC(=O)N2 | 58 | – | – | – | – | –
2 | CC(Cn1ccnc1)c1ccc2c(c1)CCC(=O)N2 (configuration not stated) | 5.5 | 350 | 64 | – | – | –
3 | O=C1CCc2cc(/C(=C/n3ccnc3)c3ccccc3)ccc2N1 | 28 | 270 | 9.6 | – | – | –
4 | O=C1CCc2cc(/C=C/c3cccnc3)ccc2N1 | 6.2 | 95 | 15 | -7 | 23 | Change systolic BP (Rattus norvegicus [4]): -12%; Change systolic BP (Rattus norvegicus [7]): -7%; Change in heart rate (Rattus norvegicus [8]): 11%; Change in heart rate (Rattus norvegicus [9]): 32%
5 | Cc1[nH]c(=O)c(C#N)cc1-c1ccncc1 [MILRINONE] | – | – | – | -54 | 36 | Change systolic BP (Rattus norvegicus [4]): -47%; Change systolic BP (Rattus norvegicus [10]): -65%; Change in heart rate (Rattus norvegicus [8]): 11%; Change in heart rate (Rattus norvegicus [9]): 45%
6 | O=C1CCc2cc(/C(=C/c3cccnc3)c3ccccc3)ccc2N1 | 170 | – | – | – | – | –
7 | O=C1CCc2cc(/C=C/Cn3ccnc3)ccc2N1 | 1.7 | 160 | 94 | -17 | 15 | Change systolic BP (Rattus norvegicus [4]): 5%; inhibition in vivo at 50 mg/kg (Rattus norvegicus [11]): -28%; Change systolic BP (Rattus norvegicus [7]): -19%; Change in heart rate (Rattus norvegicus [8]): 15%; Change in heart rate (Rattus norvegicus [9]): 14%
8 | O=C1CCc2cc(CCn3ccnc3)ccc2N1 | 8.3 | 140 | 17 | -2 | 34 | Change systolic BP (Rattus norvegicus [4]): -13%; Change systolic BP (Rattus norvegicus [7]): -14%; Change in heart rate (Rattus norvegicus [8]): 17%; Change in heart rate (Rattus norvegicus [9]): 12%
9 | CCCCCC(c1ccc2c(c1)CCC(=O)N2)n1ccnc1 (configuration not stated) | 2.5 | 37 | – | – | – | –
10 | CCCCCC(Cc1cccnc1)c1ccc2c(c1)CCC(=O)N2 (configuration not stated) | 37 | – | – | – | – | –
11 | C=C(Cn1ccnc1)c1ccc2c(c1)CCC(=O)N2 | 7.6 | 74 | 9.7 | – | – | –
12 | Cl.O=C(O)c1ccc(OCCn2ccnc2)cc1 [DAZOXIBEN HYDROCHLORIDE] | – | – | – | – | – | survival at 1 mg/kg (Mus musculus [12]): 20%; Survival (Mus musculus [13]): 10%; inhibition in vivo at 100 mg/kg (Rattus norvegicus [14]): 50.9%; Survival (Mus musculus [15]): 20%; inhibition at 50 µM (Homo sapiens [16]): 1.5%; inhibition in vivo at 100 mg/kg (Rattus norvegicus [17]): 24.6%; Survival (Mus musculus [18]): 40%; survival at 12 mg/kg (Mus musculus [19]): 50%; survival at 30 mg/kg (Mus musculus [20]): 50%; inhibition in vivo at 50 mg/kg (Rattus norvegicus [21]): 74%; inhibition in vivo at 100 mg/kg (Rattus norvegicus [22]): 23.4%; TXB2 level at 5 µM (Homo sapiens [23]): 2.4%; survival at 9 mg/kg (Mus musculus [24]): 40%; 6-keto-PGF1α level at 50 µM (Homo sapiens [25]): 25.2%; Survival (Mus musculus [26]): 20%
13 | C/C(=C\c1cccnc1)c1ccc2c(c1)CCC(=O)N2 | 2.2 | 90 | 41 | -15 | 20 | Change systolic BP (Rattus norvegicus [7]): -19% and -16%; Change in heart rate (Rattus norvegicus [9]; 10 mg/kg): 12% and 25%
14 | O=C1CCc2cc(-n3ccnc3)ccc2N1 | 2 | 80 | 40 | – | – | IC50 (Phosphodiesterase 3): 16 µM; IC50 (Thromboxane-A synthase): 2 µM; inhibition in vivo at 50 mg/kg (Rattus norvegicus [11]): 77%; Ratio (Homo sapiens [27]): 8
